Legend:
[1] = protonation constant of the complex, KMnLH = [MnHL]/[MnL] × [H^+]; cited from earlier work
[2] = Cyclic voltammetry of the Mn(II) complexes; format: physicochemical; settings: for peak-to-peak separation (ΔEp): 2 mM complex, pH ∼ 6.5
Description: Cyclic voltammetry experiments were performed with Mn-PYAN and Mn-CHXPYAN, using aqueous solutions with a complex concentration of 2 mM, containing 0.15 M NaCl as the supporting electrolyte (pH ∼ 6.5). The cyclic voltammograms obtained (Figure 3) show well-defined anodic and cathodic waves due to the Mn(II)/Mn(III) pair, which are characteristic of reversible or quasi-reversible processes. At the lowest scan rate (20 mV/s), the peak-to-peak separation (ΔEp) is slightly smaller for Mn-CHXPYAN than for Mn-PYAN, with values of 73 and 80 mV, respectively. When increasing the scan rate, ΔEp increases slightly, with values of 85 and 102 mV, respectively, at the highest scan rate (500 mV/s). This situation is characteristic of electrochemically quasi-reversible processes, although for Mn-CHXPYAN, the values of ΔEp are lower and present less variation with the scan rate.
This is likely related to ligand field effects due to the more symmetrical octahedral coordination around the metal ion in Mn-CHXPYAN than in Mn-PYAN, as evidenced by the shape measures mentioned above (Table S1, Supporting Information).[37] Indeed, high-spin Mn(III) complexes often display Jahn–Teller distorted octahedral coordination, while high-spin Mn(II) complexes lack any LFSE.[38],[39] The E1/2 values of 652 and 567 mV vs Ag/AgCl (3 M KCl) correspond to 862 and 777 mV vs NHE for Mn-PYAN and Mn-CHXPYAN, respectively.[40]
Cyclic voltammetry measurements were performed with a three-electrode configuration on an Autolab PGSTAT302 M potentiostat-galvanostat. A glassy-carbon disk (Metrohm 61204600) was used as the working electrode. The surface of this electrode was polished with α-Al2O3 (0.3 μm) and washed with distilled water before every measurement. The reference electrode used was a Ag/AgCl reference electrode filled with 3 M KCl (Metrohm 6.0726.100). A Pt wire was used as the counter electrode. The complex solutions (2 mM) containing […] were deoxygenated by bubbling nitrogen before each measurement.

[3] = scan rate 500 mV/s, 0.15 M NaCl
[4] = vs Ag/AgCl (3 M KCl), 0.15 M NaCl

Row | Compound | log KMnLH [1] | peak-to-peak separation (ΔEp) ([2]; scan rate 20 mV/s, 0.15 M NaCl) [mV] | peak-to-peak separation (ΔEp) [2, 3] [mV] | half wave potential (E1/2) [2, 4] [mV] | half wave potential (E1/2) ([2]; vs NHE) [mV]
1 | [Mn+2].c1cc2nc(c1)CNCCNCc1cccc(n1)CNCCNC2 [Mn-PYAN] | 5.19 | 80 | 102 | 652 | 862
2 | [Mn+2].c1cc2nc(c1)CN[C@@H]1CCCC[C@H]1NCc1cccc(n1)CN[C@@H]1CCCC[C@H]1NC2 [Mn-CHXPYAN] | – | 73 | 85 | 567 | 777

Source: paper PMC11247486, “Improving the In Vivo Stability of [^52Mn]Mn(II) Complexes with 18-Membered Macrocyclic Chelators for PET Imaging” (Journal of Medicinal Chemistry, 2024)
